In BigSolDB 2.1:

CSCC[C@H](NC(C)=O)C(=O)O
solubility (mole fraction)
Conditions	283.15 K	288.15 K	293.15 K	298.15 K	303.15 K	308.15 K	313.15 K	318.15 K	323.15 K
in 2-butanone	0.0192	0.0243	0.0316	0.0408	0.0546	0.0764	0.112	0.135	0.18
in acetone	0.0372	0.0524	0.0643	0.0899	0.118	0.154	0.195	0.231	0.283
in acetonitrile	0.00684	0.00873	0.0119	0.0167	0.0238	0.0354	0.0549	0.0912	0.154
in dimethyl carbonate	0.00222	0.00268	0.00369	0.00531	0.00614	0.00835	0.0109	0.0151	0.0216
in ethanol	0.0966	0.121	0.145	0.163	0.186	0.222	0.285	0.343	0.409
in ethyl acetate	0.00553	0.00645	0.00846	0.0101	0.0134	0.0169	0.022	0.0284	0.0399
in methyl acetate	0.00709	0.00877	0.0113	0.015	0.0193	0.026	0.0358	0.052	0.0821
in n-butanol	0.0531	0.0697	0.084	0.103	0.121	0.145	0.175	0.207	0.242
in n-butyl acetate	0.00312	0.00346	0.00409	0.00536	0.00667	0.00833	0.0103	0.0137	0.0171
in n-pentanol	0.0417	0.05	0.0609	0.0755	0.0901	0.113	0.14	0.167	0.212
in n-propanol	0.0668	0.0825	0.099	0.127	0.158	0.191	0.237	0.281	0.327
in n-propyl acetate	0.0037	0.00414	0.00487	0.00685	0.00834	0.0107	0.013	0.0171	0.021
